From patent US7723321B2, “Chromane substituted benzimidazole derivatives” (RaQualia Pharma Inc., priority 2005, dated 2010)

System: gastric acid secretion
Assay: Inhibition of gastric acid secretion in the Heidenhain pouch dog
Type: in vivo, Beagle dogs
Settings: histamine-stimulated acid secretion, maximum inhibition relative to control
Method: Male Beagle dogs weighing 7-15 kg with Heidenhain pouch [Heidenhain R: Arch Ges Physiol. 1879, 19: 148-167] were used. The animals were allowed to recover from surgery for at least three weeks before the experiments. The animals were kept at a 12 hour light-dark rhythm, housed singly. They received standard food once daily at 11:00 a.m. and tap water ad libitum, and were fasted overnight prior to the experiment, with free access to water. Gastric juice samples were collected throughout the experiment by gravity drainage every 15 min. Acidity in the gastric juice was measured by titration to the end point of pH 7.0. Acid secretion was stimulated by a continuous intravenous infusion of histamine (80 μg/kg/h). Oral or intravenous bolus administration of the test compounds was done 90 minutes after commencement of the histamine infusion. The acid secretion was monitored after the administration. The activity was evaluated by the maximum inhibition relative to the corresponding control value.

| SMILES | inhibitory activity (gastric acid secretion) |
| --- | --- |
| Cc1nc2c(O[C@H]3CCOc4cc(F)cc(F)c43)cc(C(=O)N(C)C)cc2[nH]1 (single isomer, unassigned) [Example 2] | good inhibitory activity |

Target: T1, porcine gastric H^+/K^+-ATPase (Sus scrofa, UniProt P19156)
T1 construct: prepared from mucous membrane in fresh porcine stomachs by homogenization; from tissue; host or cells: mucous membrane of fresh porcine stomachs (gastric vesicles, Ficoll/sucrose gradient)
T1 sequence (P19156 2-1034 limits assumed): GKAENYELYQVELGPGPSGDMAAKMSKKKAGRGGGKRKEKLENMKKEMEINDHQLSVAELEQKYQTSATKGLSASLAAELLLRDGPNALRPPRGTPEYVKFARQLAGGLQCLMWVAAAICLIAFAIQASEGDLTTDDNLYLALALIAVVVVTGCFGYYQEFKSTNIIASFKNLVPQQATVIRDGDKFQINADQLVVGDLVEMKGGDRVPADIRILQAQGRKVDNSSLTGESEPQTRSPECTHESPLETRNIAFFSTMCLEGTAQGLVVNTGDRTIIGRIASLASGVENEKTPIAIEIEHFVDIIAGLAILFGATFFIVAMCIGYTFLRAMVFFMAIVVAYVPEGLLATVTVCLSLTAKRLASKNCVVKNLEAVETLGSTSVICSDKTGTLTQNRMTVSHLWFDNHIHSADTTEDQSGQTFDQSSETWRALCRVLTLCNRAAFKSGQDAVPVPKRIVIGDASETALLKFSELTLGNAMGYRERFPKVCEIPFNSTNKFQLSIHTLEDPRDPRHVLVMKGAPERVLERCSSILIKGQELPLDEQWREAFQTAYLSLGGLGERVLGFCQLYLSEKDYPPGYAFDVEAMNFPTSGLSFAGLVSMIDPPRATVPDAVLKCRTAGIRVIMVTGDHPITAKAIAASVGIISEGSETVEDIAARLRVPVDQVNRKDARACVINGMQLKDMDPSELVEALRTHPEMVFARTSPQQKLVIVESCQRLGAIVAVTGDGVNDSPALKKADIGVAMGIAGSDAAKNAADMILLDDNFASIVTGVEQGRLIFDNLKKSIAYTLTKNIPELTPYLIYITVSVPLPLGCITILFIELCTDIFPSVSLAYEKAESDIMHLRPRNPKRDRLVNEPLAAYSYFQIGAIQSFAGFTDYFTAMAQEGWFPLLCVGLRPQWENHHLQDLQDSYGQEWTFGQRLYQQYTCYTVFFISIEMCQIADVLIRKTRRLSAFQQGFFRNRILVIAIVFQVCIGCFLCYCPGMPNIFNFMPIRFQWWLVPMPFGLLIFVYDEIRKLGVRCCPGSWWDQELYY
T1 sequence (P18434 whole entry partner): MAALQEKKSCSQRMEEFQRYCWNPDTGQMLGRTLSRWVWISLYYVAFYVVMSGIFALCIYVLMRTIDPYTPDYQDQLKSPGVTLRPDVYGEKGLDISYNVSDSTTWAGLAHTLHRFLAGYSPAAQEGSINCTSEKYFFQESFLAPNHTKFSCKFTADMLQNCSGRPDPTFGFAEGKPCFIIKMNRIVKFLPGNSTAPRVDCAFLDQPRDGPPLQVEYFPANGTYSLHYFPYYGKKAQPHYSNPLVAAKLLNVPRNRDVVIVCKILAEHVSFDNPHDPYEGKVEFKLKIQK
Assay: Ion-tight porcine gastric H+/K+-ATPase inhibition
Type: biochemical
Settings: ion-tight porcine gastric vesicles, 150 mM KCl, valinomycin, pH 7.4, 37° C., 30 minutes
Method: The porcine gastric vesicles for Porcine gastric H^+/K^+-ATPase inhibition assays were prepared from mucous membrane in fresh porcine stomachs by homogenization with a tight-fitted polytetrafluoroethylene (Teflone®) homogenizer in 0.25 M sucrose at 4° C. The crude pellet was removed with centrifugation at 20,000 g for 30 min. Then supernatant was centrifuged at 100,000 g for 30 min. The resulting pellet was re-suspended in 0.25 M sucrose, and then subjected to density gradient centrifugation at 132,000 g for 90 min. The gastric vesicles were collected from interface on 0.25 M sucrose layer containing 7% Ficoll™ PM400(Amersham Biosciences). This procedure was performed in a cold room.
Ion-tight porcine gastric H^+/K^+-ATPase inhibition was measured according to the modified method described in Biochemical Pharmacology, 1988, 37, 2231-2236.
The isolated vesicles were kept in deep-freezer until use. For enzyme assay, vesicles were diluted with 3 mM MgSO4 containing 5 mM Tris (pH 7.4 at 37° C.).
Enzyme reaction was performed incubating 150 mM KCl, 3 mM Na2ATP, 3 mM MgSO4 15 μM valinomycin and 3.0 μg of vesicles for 30 minutes at 37° C. in a final 60 μl of reaction mixture (5 mM Tris, pH 7.4) with or without the test compound. Enzyme reaction was stopped by adding 10% SDS. Released inorganic phosphate from ATP was detected by incubating with mixture of 1 part of 35 mM ammonium molybdate tetrahydrate in 15 mM Zinc acetate hydrate and 4 parts of 10% ascorbic acid (pH 5.0), resulting in phosphomolybdate, which has optical density at 750 nm.

| SMILES | IC50 |
| --- | --- |
| Cc1nc2c(OC3CCOc4cc(F)cc(F)c43)cc(C(=O)N(C)C)cc2[nH]1 (racemic) [Example 1, 4-[(5,7-Difluoro-3,4-dihydro-2H-chromen-4-yl)oxy]-N,N,2-trimethyl-1H-benzimidazole-6-carboxamide] | 190 nM |
| Cc1nc2c(OC3CCOc4cccc(F)c43)cc(C(=O)N(C)C)cc2[nH]1 (single isomer, unassigned; (-)) [Example 10, (−)-4-[(5-Fluoro-3,4-dihydro-2H-chromen-4-yl)oxy]-N,N,2-trimethyl-1H-benzimidazole-6-carboxamide] | 140 nM |
| Cc1nc2c(OC3CCOc4cc(F)cc(F)c43)cc(C(=O)N3CCC3)cc2[nH]1 (single isomer, unassigned; (-)) [Example 22, (−)-6-(Azetidin-1-ylcarbonyl)-4-[(5,7-difluoro-3,4-dihydro-2H-chromen-4-yl)oxy]-2-methyl-1H-benzimidazole] | 570 nM |
| Cc1nc2c(OC3CCOc4cc(F)cc(F)c43)cc(C(=O)N(C)CCO)cc2[nH]1 (centres unmarked) [Example 7, 4-[(5,7-Difluoro-3,4-dihydro-2H-chromen-4-yl)oxy]-N-(2-hydroxyethyl)-N,2-dimethyl-1H-benzimidazole-6-carboxamide] | 1100 nM |
| Cc1nc2c(OC3CCOc4cc(F)cc(F)c43)cc(C(=O)N(C)CCN(C)C)cc2[nH]1 (centres unmarked) [Example 8, 4-[(5,7-Difluoro-3,4-dihydro-2H-chromen-4-yl)oxy]-N-[2-(dimethylamino)ethyl]-N,2-dimethyl-1H-benzimidazole-6-carboxamide] | 610 nM |
| Cc1nc2c(OC3CCOc4ccccc43)cc(C(=O)N(C)C)cc2[nH]1 (centres unmarked) [Example 12, 4-(3,4-Dihydro-2H-chromen-4-yloxy)-N,N,2-tri methyl-1H-benzimidazole-6-carboxamide] | 230 nM |
| Cc1nc2c(OC3CCOc4c(F)ccc(F)c43)cc(C(=O)N(C)C)cc2[nH]1 (centres unmarked) [Example 14, 4-[(5,8-Difluoro-3,4-dihydro-2H-chromen-4-yl)oxy]-N,N,2-trimethyl-1H-benzimidazole-6-carboxamide] | 220 nM |
| CCc1nc2c(OC3CCOc4cc(F)cc(F)c43)cc(C(=O)N(C)C)cc2[nH]1 (centres unmarked) [Example 15, 4-[(5,7-Difluoro-3,4-dihydro-2H-chromen-4-yl)oxy]-2-ethyl-N,N-dimethyl-1H-benzimidazole-6-carboxamide] | 210 nM |
| CNC(=O)c1cc(OC2CCOc3cccc(C)c32)c2nc(C)[nH]c2c1 (centres unmarked) [Example 19, N,2-Dimethyl-4-[(5-methyl-3,4-dihydro-2H-chromen-4-yl)oxy]-1H-benzimidazole-6-carboxamide] | 240 nM |
| Cc1nc2c(O[C@H]3CCOc4cc(F)cc(F)c43)cc(C(=O)N3CCOCC3)cc2[nH]1 [Example 24, (−)-4-[(5,7-Difluoro-3,4-dihydro-2H-chromen-4-yl)oxy]-2-methyl-6-(morpholin-4-ylcarbonyl)-1H-benzimidazole] | 370 nM |
| Cc1nc2c(OC3CCSc4ccccc43)cc(C(=O)N(C)C)cc2[nH]1 (centres unmarked) [Example 25, 4-(3,4-Dihydro-2H-thiochromen-4-yloxy)-N,N,2-trimethyl-1H-benzimidazole-6-carboxamide] | 160 nM |

These reach a lower IC50. Values come first.

| IC50 | SMILES |
| --- | --- |
| 58 nM | Cc1nc2c(OC3CCOc4cc(F)cc(F)c43)cc(C(=O)N3CCCC3)cc2[nH]1 (racemic) [Example 4, 4-[(5,7-Difluoro-3,4-dihydro-2H-chromen-4-yl)oxy]-2-methyl-6-(pyrrolidin-1-ylcarbonyl)-1H-benzimidazole] |
| 130 nM | Cc1nc2c(OC3CCOc4cccc(F)c43)cc(C(=O)N(C)C)cc2[nH]1 (racemic) [Example 9, 4-[(5-Fluoro-3,4-dihydro-2H-chromen-4-yl)oxy]-N,N,2-trimethyl-1H-benzimidazole-6-carboxamide] |
| 86 nM | Cc1nc2c(O[C@H]3CCOc4cc(F)cc(F)c43)cc(C(=O)N(C)C)cc2[nH]1 (single isomer, unassigned) [Example 2] |
| 98 nM | Cc1nc2c(O[C@@H]3CCOc4cc(F)cc(F)c43)cc(C(=O)N(C)C)cc2[nH]1 (single isomer, unassigned) [Example 3] |
| 32 nM | Cc1nc2c(OC3CCOc4cc(F)cc(F)c43)cc(C(=O)N3CCCC3)cc2[nH]1 (single isomer, unassigned; (+)) [Example 5, (+)-4-[(5,7-Difluoro-3,4-dihydro-2H-chromen-4-yl)oxy]-2-methyl-6-(pyrrolidin-1-ylcarbonyl)-1H-benzimidazole] |
| 120 nM | Cc1nc2c(OC3CCOc4cccc(F)c43)cc(C(=O)N(C)C)cc2[nH]1 (single isomer, unassigned; (+)) [Example 11, (+)-4-[(5-Fluoro-3,4-dihydro-2H-chromen-4-yl)oxy]-N,N,2-trimethyl-1H-benzimidazole-6-carboxamide] |
| 130 nM | Cc1nc2c(OC3CCOc4cccc(C)c43)cc(C(=O)N(C)C)cc2[nH]1 (single isomer, unassigned; (+)) [Example 18, (+)-N,N,2-Trimethyl-4-[(5-methyl-3,4-dihydro-2H-chromen-4-yl)oxy]-1H-benzimidazole-6-carboxamide] |
| 30 nM | Cc1nc2c(OC3CCOc4cc(F)cc(F)c43)cc(C(=O)N3CCCC3)cc2[nH]1 (single isomer, unassigned; (-)) [Example 6, (−)-4-[(5,7-Difluoro-3,4-dihydro-2H-chromen-4-yl)oxy]-2-methyl-6-(pyrrolidin-1-ylcarbonyl)-1H-benzimidazole] |
| 99 nM | Cc1nc2c(OC3CCOc4cccc(C)c43)cc(C(=O)N(C)C)cc2[nH]1 (single isomer, unassigned; (-)) [Example 17, (−)-N,N,2-Trimethyl-4-[(5-methyl-3,4-dihydro-2H-chromen-4-yl)oxy]-1H-benzimidazole-6-carboxamide] |
| 130 nM | Cc1nc2c(OC3CCOc4c(F)ccc(C)c43)cc(C(=O)N(C)C)cc2[nH]1 (centres unmarked) [Example 13, 4-[(8-Fluoro-5-methyl-3,4-dihydro-2H-chromen-4-yl)oxy]-N,N,2-trimethyl-1H-benzimidazole-6-carboxamide] |
| 68 nM | Cc1nc2c(OC3CCOc4cccc(C)c43)cc(C(=O)N(C)C)cc2[nH]1 (centres unmarked) [Example 16, N,N,2-Trimethyl-4-[(5-methyl-3,4-dihydro-2H-chromen-4-yl)oxy]-1H-benzimidazole-6-carboxamide] |
| 71 nM | Cc1nc2c(OC3CCOc4cccc(C)c43)cc(C(=O)N3CCCC3)cc2[nH]1 (centres unmarked) [Example 20, 2-Methyl-4-[(5-methyl-3,4-dihydro-2H-chromen-4-yl)oxy]-6-(pyrrolidin-1-ylcarbonyl)-1H-benzimidazole] |
| 82 nM | Cc1nc2c(OC3CCOc4cc(F)cc(C)c43)cc(C(=O)N(C)C)cc2[nH]1 (centres unmarked) [Example 21, 4-[(7-Fluoro-5-methyl-3,4-dihydro-2H-chromen-4-yl)oxy]-N,N,2-trimethyl-1H-benzimidazole-6-carboxamide] |
| 110 nM | CCN(C)C(=O)c1cc(O[C@H]2CCOc3cc(F)cc(F)c32)c2nc(C)[nH]c2c1 [Example 23, (−)-4-[(5,7-Difluoro-3,4-dihydro-2H-chromen-4-yl)oxy]-N-ethyl-N,2-dimethyl-1H-benzimidazole-6-carboxamide] |
